In general, AUC(0-inf) refers to total exposure, with the tail of the curve extrapolated. One may read the AUC(0-t) as exposure summed from dosing to a finite time, without extrapolation to infinity. One may read the half-life as the time needed for the level to fall by half in the phase considered. As a reminder, the Cmax is the peak of the concentration-time curve. By Tmax is commonly meant the time at which the peak concentration occurs.

Data set [1] is described as follows: Disposition after single oral dose, cynomolgus monkey. The class given is in vivo. The note with it: male cynomolgus monkey, 10 mg/kg single oral, 14C-labeled, fasting. As to the method: After a single dose of compound 31 labeled with ^14C was orally administered at a predetermined dose to each of a male mouse, a male rat, and a male cynomolgus monkey under fasting conditions, the concentration in blood was measured after a lapse of a given time, and parameters such as maximum plasma concentration Cmax, time Tmax to reach the maximum plasma concentration, half-life t1/2, area under curve AUC0-∞, mean retention time MRT0-∞, and bioavailability BA were calculated. The concentration in blood in humans (normal subjects) was measured and each of the parameters was calculated, in the similar manner as above except that ^14C-unlabeled compound 31 was used.
In the tables, “N.D.” means not detected.

The subject of data set [2] is GM-CSF production from lymph node T-cells. Briefly: Amount of GM-CSF in lymph node cell culture supernatants of mice after oral dose (ELISA). The note with it: for suppressive effects on GM-CSF production from lymph node T-cells: oral high dose 1 mg/kg. The class given is in vivo, C57BL/6 mice. How it is done:
Compound 31 was orally administered to 8-week-old C57BL/6 mice (female) by using a probe. The dose employed 15 μg/kg (low dose) of compound 31 or 1 mg/kg (high dose) of compound 31 dissolved in 200 μL of mouse drinking water. As a control, 200 μL of mouse drinking water was administered alone.
2 days or 7 days after the oral administration of compound 31, each mouse was euthanized by cervical dislocation, and axillary and inguinal lymph nodes were collected. The collected lymph nodes were disrupted on BD Falcon Cell Strainer (Becton, Dickinson and Company) having a diameter of 40 μm, PBS was added, and the resultant was recovered into a 50-mL conical tube and centrifuged at 1500 rpm for 5 minutes, and then, a supernatant was removed by suction.
The recovered cells were suspended into a single cell suspension by adding 1000 μL of an RPMI medium (Life Technologies Corp.) containing 10% FBS (Fetal Bovine Serum; Life Technologies Corp.), and then, the number of cells was measured with a counting chamber.
On the day prior to the lymph node collection from the mice after the administration, an anti-CD3 monoclonal antibody (self-produced) and an anti-CD28 antibody (Becton, Dickinson and Company) were each adjusted to 1 μg/mL with PBS, placed at 50 μL to each well of BD Falcon 96-well flat bottom plate (Becton, Dickinson and Company), and stored at 4° C. so that the plate was coated with the anti-CD3/CD28 antibodies. The prepared single cell suspension was inoculated at 5×10^5 cells/well to the plate and then cultured at 37° C. for 48 hours in a 5% CO2 incubator to perform stimulation with the anti-CD3 antibody and the anti-CD28 antibody.
A supernatant was recovered, and the concentration of GM-CS contained in the culture supernatant was measured by using an ELISA kit (OptEIA Mouse GM-CSF ELISA set; Becton, Dickinson and Company) according to the attached document.
On the technique in general: In an ELISA, binding on a coated surface is turned into a signal by an enzyme label.

Data set [3] concerns IFN-γ. Briefly: IFN-γ expression level of sorted CD4-positive memory T-cells of MS patients (ELISA of culture supernatant). It counts as in vivo, human. The note with it: 0.3 mg single oral. As to the method: A single dose of compound 31, which is a synthetic glycolipid of the present invention, described in the first aspect was orally administered to each of 2 MS patients (subjects) shown in Table 2 above after obtainment of informed consent. The dose was set to 0.3 mg per person.
Subsequently, T-cell subfractions were prepared from the peripheral blood of each subject by using the density gradient centrifugation method. First, a total of 20 mL of blood was collected from the vein of each subject 24 hours (1st day), 48 hours (2nd day), 72 hours (3rd day), 168 hours (7th day), and 192 hours (8th day) after the administration of compound 31 by using two 10-mL heparin sodium-containing vacuum blood collection tubes. For a control, 20 mL of blood was similarly collected from the vein of each subject one day before the administration of compound 31.
The collected PBMCs were stained with antibodies by the following method. First, 10 μL of a solution consisting of 20 μL of MACS buffer, 0.25 μL of APC-Cy7-anti-CD3 antibody (BioLegend, Inc.), 1 μL of PB-anti-CD4 antibody (BioLegend, Inc.), 1 μL of PerCP-Cy5.5-anti-CD45RA antibody (BioLegend, Inc.), and 1 μL of PC7-anti-CD56 antibody (Beckman Coulter, Inc.) was added to 6×10^6 cells of PBMCs, thoroughly mixed by vortexing, and then left on ice for 20 minutes. CD56 is a detection marker of cells having NK activity, and CD3^−CD56^− cells indicate being antigen-presenting cells (APCs). […]
mCD4T and APC obtained by the sorting were each suspended in a medium consisting of 500 mL of RPMI1640 (GIBCO/Thermo Fisher Scientific Inc.), 5 mL of glutamine (200 mM, Wako Pure Chemical Industries, Ltd.), 5 mL of Pen/strep (10,000 U/mL, GIBCO/Thermo Fisher Scientific Inc.), 0.5 mL of 2-mercaptoethanol (GIBCO/Thermo Fisher Scientific Inc.), and 50 mL of 10% (v/v) Cellect FETAL BOVINE SERUM (MP Biomedicals, LLC), and the number of cells was measured. […]
After the culture, a culture supernatant was collected, and IFN-γ, IL-4, IL-17, and GM-CSF were measured by the ELISA method. […]

`CCCCCCCCCCCCCCCCCCCCCCCC(=O)NC(COC1OC(CO)C(O)C(O)C1O)[C@H](O)C(O)CCCCC` (stereo in doubt) [compound 31, (2S,3S,4R)-1-O-(α-D-galactosyl)-2-(N-tetracosanoylamino)-1,3,4-nonanetriol]: the AUC(0-inf) in data set [1] (blood) turned out to be 2380 ng·h/mL. Besides, the area under the curve AUC(0-t) in data set [1] (blood) turned out to be 2260 ng·h/mL. The molecule also gave a half-life in data set [1] (blood) of 39.2 h. Moreover, the MRT inf in data set [1] (blood, read-out: MRT0-∞) came out at 60.9 h. Moreover, the BA in data set [1] came to 0.11%. For the same molecule, the Rate of absorption in data set [1] was 0.41%. Besides, the concentration in blood in data set [1] (4 h) amounted to 1.92; in data set [1] (8 h), 9.59; in data set [1] (12 h), 33.4; in data set [1] (24 h), 35.2; in data set [1] (48 h) it was 26.5; in data set [1] (72 h), 13. Further, the concentration in blood turned out to be 7.1 in data set [1] (96 h), 4.21 in data set [1] (120 h), 2.83 in data set [1] (144 h) and 2.05 in data set [1] (168 h). The Cmax in data set [1] (plasma) turned out to be 39.4 ng/mL. For the same molecule, the time to peak (Tmax) in data set [1] (plasma) was determined as 28 h. Further, the “suppressive effects on GM-CSF production from lymph node T-cells” value in data set [2] (2nd day after administration) is given as “not seen”; in data set [2] (7th day after administration) it was “observed”. In data set [2] (oral low dose 15 μg/kg, anti-CD3/CD28 stimulation 48 h, vs vehicle), the “GM-CSF production from lymph node T-cells” value was “significantly suppressed”. Moreover, the IFNγ expression level came to 7006.30 in data set [3] (day 8, MBP stimulation (culture condition B), day −1 value 28528.18) and 5032.43 in data set [3] (day 8, OVA stimulation (culture condition A), day −1 value 23489.34). Also, in data set [3] (day8 vs day-1), the “change of expression level of IFN-γ” value was “decreased”.

The record behind these values is patent publication US12447167B2, “GM-CSF-producing t-cell control agent and Th1/Th2 immune balance regulator” (National Center of Neurology and Psychiatry, priority 2014, dated 2025).
